From ChEMBL document CHEMBL4011641, “Prodrugs of Pyrazolo[3,4-d]pyrimidines: From Library Synthesis to Evaluation as Potential Anticancer Agents in an Orthotopic Glioblastoma Model” (J Med Chem, 2017)
Converted amounts (≈) assume the structure as drawn.

Tests used:
[1] = cells; conditions: Homo sapiens, U-87 MG, 72 h
Description: Cytotoxicity against human U87 cells assessed as reduction in cell viability after 72 hrs by trypan blue assay

[2] = cells; conditions: Homo sapiens, U-87 MG, 48 h
Description: Cytotoxicity against human U87 cells assessed as reduction in cell viability after 48 hrs by trypan blue assay

[3] = Drug uptake in BALB/C mouse adipose tissue at 50 mg/kg, ip via bolus administration measured at 24 hrs post dose by UV/LC-MS; format: ADME, organism-based; conditions: in vivo
[4] = system: Mus musculus; assay: Cmax in BALB/C mouse assessed as N-(3-bromophenyl)-1-(2-chloro-2-phenylethyl)-6-(2-morpholinoethylthio)-1H-pyrazolo[3,4-d]pyrimidin-4-amine level at 50 mg/kg administered through oral gavage as methylcellulose formulation measured at 1 to 24 hrs post dose by UV/LC-MS analysis; format: ADME, organism-based; parameters: dose 50 mg/kg, route oral; conditions: in vivo
[5] = system: Mus musculus; assay: Cmax in BALB/C mouse assessed as N-(3-bromophenyl)-1-(2-chloro-2-phenylethyl)-6-(2-morpholinoethylthio)-1H-pyrazolo[3,4-d]pyrimidin-4-amine level at 50 mg/kg, ip administered via bolus dose using DMSO formulation measured at 1 to 24 hrs post dose by UV/LC-MS analysis; format: ADME, organism-based; parameters: dose 50 mg/kg, route intraperitoneal; conditions: in vivo
[6] = system: Brain; assay: Drug uptake in BALB/C mouse brain at 50 mg/kg, ip via bolus administration measured at 24 hrs post dose by UV/LC-MS analysis; format: ADME, organism-based; conditions: in vivo
[7] = system: Mus musculus; assay: AUC (0 to infinity) in BALB/C mouse assessed as N-(3-bromophenyl)-1-(2-chloro-2-phenylethyl)-6-(2-morpholinoethylthio)-1H-pyrazolo[3,4-d]pyrimidin-4-amine level at 50 mg/kg administered through oral gavage as methylcellulose formulation measured at 1 to 24 hrs post dose by UV/LC-MS analysis; format: ADME, organism-based; parameters: dose 50 mg/kg, route oral, time infinity; conditions: in vivo
[8] = AUC (0 to infinity) in BALB/C mouse at 50 mg/kg, ip administered via bolus dose using DMSO formulation measured at 1 to 24 hrs post dose by UV/LC-MS analysis; format: ADME, organism-based; parameters: dose 50 mg/kg, time infinity, route intraperitoneal; conditions: in vivo
[9] = cells; conditions: Homo sapiens, U-87 MG, 24 h
Description: Cytotoxicity against human U87 cells assessed as reduction in cell viability after 24 hrs by trypan blue assay

[10] = system: Mus musculus; assay: Tmax in BALB/C mouse assessed as N-(3-bromophenyl)-1-(2-chloro-2-phenylethyl)-6-(2-morpholinoethylthio)-1H-pyrazolo[3,4-d]pyrimidin-4-amine level at 50 mg/kg, ip administered via bolus dose using DMSO formulation measured at 1 to 24 hrs post dose by UV/LC-MS analysis; format: ADME, organism-based; conditions: in vivo
[11] = system: Mus musculus; assay: Half life in BALB/C mouse assessed as N-(3-bromophenyl)-1-(2-chloro-2-phenylethyl)-6-(2-morpholinoethylthio)-1H-pyrazolo[3,4-d]pyrimidin-4-amine level at 50 mg/kg administered through oral gavage as methylcellulose formulation measured at 1 to 24 hrs post dose by UV/LC-MS analysis; format: ADME, organism-based; conditions: in vivo
[12] = system: Mus musculus; assay: Tmax in BALB/C mouse assessed as N-(3-bromophenyl)-1-(2-chloro-2-phenylethyl)-6-(2-morpholinoethylthio)-1H-pyrazolo[3,4-d]pyrimidin-4-amine level at 50 mg/kg administered through oral gavage as methylcellulose formulation measured at 1 to 24 hrs post dose by UV/LC-MS analysis; format: ADME, organism-based; conditions: in vivo
[13] = system: Mus musculus; assay: Half life in BALB/C mouse assessed as N-(3-bromophenyl)-1-(2-chloro-2-phenylethyl)-6-(2-morpholinoethylthio)-1H-pyrazolo[3,4-d]pyrimidin-4-amine level at 50 mg/kg, ip administered via bolus dose using DMSO formulation measured at 1 to 24 hrs post dose by UV/LC-MS analysis; format: ADME, organism-based; conditions: in vivo
[14] = MRT in BALB/C mouse at 50 mg/kg, ip administered via bolus dose using DMSO formulation measured at 1 to 24 hrs post dose by UV/LC-MS analysis; format: ADME, organism-based; conditions: in vivo
[15] = Tmax in BALB/C mouse at 50 mg/kg, ip administered via bolus dose using DMSO formulation measured at 1 to 24 hrs post dose by UV/LC-MS analysis; format: ADME, organism-based; conditions: in vivo
[16] = physchem; conditions: PAMPA
Description: Apparent permeability at 500 uM after 5 hrs by Blood-Brain Barrier-based PAMPA

[17] = physchem; conditions: aqueous
Description: Aqueous solubility of compound at 1 mg after 24 hrs by UV/LC-MS analysis

[18] = AUC (0 to 24 hrs) in BALB/C mouse at 50 mg/kg, ip administered via bolus dose using DMSO formulation measured at 1 to 24 hrs post dose by UV/LC-MS analysis; format: ADME, organism-based; parameters: dose 50 mg/kg, time < 24 hr, route intraperitoneal; conditions: in vivo
[19] = system: Mus musculus; assay: Plasma clearance in BALB/C mouse assessed as N-(3-bromophenyl)-1-(2-chloro-2-phenylethyl)-6-(2-morpholinoethylthio)-1H-pyrazolo[3,4-d]pyrimidin-4-amine level at 50 mg/kg administered through oral gavage as methylcellulose formulation measured at 1 to 24 hrs post dose by UV/LC-MS analysis; format: ADME, organism-based; conditions: in vivo
[20] = Metabolic stability in human liver microsomes assessed as parent compound remaining at 50 uM after 1 hr in presence of NADPH regenerating system by UV/LC-MS analysis; format: ADME, microsome; conditions: read-out: Stability
[21] = Metabolic stability in mouse liver microsomes assessed as unmetabolized compound remaining at 50 uM after 1 hr in presence of NADPH regenerating system by UV/LC-MS analysis; format: ADME, microsome; conditions: read-out: Stability
[22] = system: Mus musculus; assay: AUC (0 to infinity) in BALB/C mouse assessed as N-(3-bromophenyl)-1-(2-chloro-2-phenylethyl)-6-(2-morpholinoethylthio)-1H-pyrazolo[3,4-d]pyrimidin-4-amine level at 50 mg/kg, ip administered via bolus dose using DMSO formulation measured at 1 to 24 hrs post dose by UV/LC-MS analysis; format: ADME, organism-based; parameters: dose 50 mg/kg, time infinity, route intraperitoneal; conditions: in vivo
[23] = Antitumor activity against human U87 cells xenografted in nude immunodeficient CD1 mouse assessed as mean survival time at 50 mg/kg, po administered every other day (reference value: 30 day); format: functional, U-87MG ATCC
[24] = Plasma concentration in BALB/C mouse at 50 mg/kg, ip via bolus administration measured at 24 hrs post dose by UV/LC-MS; format: ADME, organism-based
[25] = system: Kidney; assay: Drug uptake in BALB/C mouse kidney at 50 mg/kg, ip via bolus administration measured at 24 hrs post dose by UV/LC-MS; format: ADME, organism-based; conditions: in vivo
[26] = Cmax in BALB/C mouse at 50 mg/kg, ip administered via bolus dose using DMSO formulation measured at 1 to 24 hrs post dose by UV/LC-MS analysis; format: ADME, organism-based; parameters: dose 50 mg/kg, route intraperitoneal; conditions: in vivo
[27] = system: Mus musculus; assay: Plasma clearance in BALB/C mouse assessed as N-(3-bromophenyl)-1-(2-chloro-2-phenylethyl)-6-(2-morpholinoethylthio)-1H-pyrazolo[3,4-d]pyrimidin-4-amine level at 50 mg/kg, ip administered via bolus dose using DMSO formulation measured at 1 to 24 hrs post dose by UV/LC-MS analysis; format: ADME, organism-based; conditions: in vivo
[28] = Plasma clearance in BALB/C mouse at 50 mg/kg, ip administered via bolus dose using DMSO formulation measured at 1 to 24 hrs post dose by UV/LC-MS analysis; format: ADME, organism-based
[29] = system: Mus musculus; assay: MRT in BALB/C mouse assessed as N-(3-bromophenyl)-1-(2-chloro-2-phenylethyl)-6-(2-morpholinoethylthio)-1H-pyrazolo[3,4-d]pyrimidin-4-amine level at 50 mg/kg, ip administered via bolus dose using DMSO formulation measured at 1 to 24 hrs post dose by UV/LC-MS analysis; format: ADME, organism-based; conditions: in vivo
[30] = system: Mus musculus; assay: AUC (0 to 24 hrs) in BALB/C mouse assessed as N-(3-bromophenyl)-1-(2-chloro-2-phenylethyl)-6-(2-morpholinoethylthio)-1H-pyrazolo[3,4-d]pyrimidin-4-amine level at 50 mg/kg administered through oral gavage as methylcellulose formulation measured at 1 to 24 hrs post dose by UV/LC-MS analysis; format: ADME, organism-based; parameters: dose 50 mg/kg, time < 24 hr, route oral; conditions: in vivo
[31] = system: Liver; assay: Drug uptake in BALB/C mouse liver at 50 mg/kg, ip via bolus administration measured at 24 hrs post dose by UV/LC-MS; format: ADME, organism-based; conditions: in vivo
[32] = system: Mus musculus; assay: AUC (0 to 24 hrs) in BALB/C mouse assessed as N-(3-bromophenyl)-1-(2-chloro-2-phenylethyl)-6-(2-morpholinoethylthio)-1H-pyrazolo[3,4-d]pyrimidin-4-amine level at 50 mg/kg, ip administered via bolus dose using DMSO formulation measured at 1 to 24 hrs post dose by UV/LC-MS analysis; format: ADME, organism-based; parameters: dose 50 mg/kg, time < 24 hr, route intraperitoneal; conditions: in vivo
[33] = Half life in BALB/C mouse at 50 mg/kg, ip administered via bolus dose using DMSO formulation measured at 1 to 24 hrs post dose by UV/LC-MS analysis; format: ADME, organism-based; conditions: in vivo
[34] = system: Mus musculus; assay: MRT in BALB/C mouse assessed as N-(3-bromophenyl)-1-(2-chloro-2-phenylethyl)-6-(2-morpholinoethylthio)-1H-pyrazolo[3,4-d]pyrimidin-4-amine level at 50 mg/kg administered through oral gavage as methylcellulose formulation measured at 1 to 24 hrs post dose by UV/LC-MS analysis; format: ADME, organism-based; conditions: in vivo

ClC(Cn1ncc2c(Nc3cccc(Br)c3)nc(SCCN3CCOCC3)nc21)c1ccccc1 (centres undefined)
IC50 [1]: 1.9 µM
IC50 [2]: 6.8 µM
Drug uptake [3]: 51.2 nmol/g
Cmax [4]: 5.35 µM
Cmax [5]: 6.07 µM
Drug uptake [6]: 2.7 nmol/g
AUC [7]: 43.53 µM·h
AUC(0-inf) [8]: 79.7 µM·h
IC50 [9]: 17.3 µM
Tmax [10]: 1.5 h
t1/2 [11]: 9.06 h
Tmax [12]: 2 h
t1/2 [13]: 33.3 h
MRT [14]: 19.1 h
Tmax [15]: 0.5 h
Papp at 5 h, 500 µM [16]: 7.1 ×10⁻⁶ cm/s
solubility at 24 h [17]: 3.7 µg/mL (≈ 6.45 µM)
AUC(0-t) at 24 h [18]: 56.1 µM·h
CL [19]: 1.14 mL/min
remaining at 1 h, 50 µM [20]: 97.2%
remaining at 1 h, 50 µM [21]: 89.2%
AUC [22]: 135.11 µM·h
MST [23]: 44 days
concentration at 24 h [24]: 2.6 µM
Drug uptake [25]: 3.6 nmol/g
Cmax [26]: 6.83 µM
CL [27]: 0.27 mL/min
CL/F [28]: 0.46 mL/min
MRT [29]: 46.62 h
AUC [30]: 36.69 µM·h
Drug uptake [31]: 1.7 nmol/g
AUC [32]: 55.14 µM·h
half-life [33]: 14.8 h
MRT [34]: 11.97 h
